# Entries after “also recorded” stand apart in the source; their conditions may differ.
# Assays:
# [1] = tested on: endothelial COX-2 expression; conditions: cited from earlier work
# patients who had an ACS = conditions: cited from earlier work
# [2] = tested on: postischemic cardiac dysfunction; conditions: cited from earlier work
# arthritic patients = conditions: compared to patients treated with naproxen; cited from earlier work
# [3] = tested on: patients with acute coronary syndromes without ST-segment elevation; assay: Open, randomized, single-blind pilot study of meloxicam added to aspirin and heparin: cardiovascular events; assay type: in vivo, human
# Protocol: (§1) Patients were recruited from the Centro de Salud and the Centro Modelo de Cardiologia, Tucuman, Argentina. Inclusion criteria were chest pain within the previous 24 hours associated with ST-segment depression (>0.5 mm) and either ECG evidence of ischemia or previously documented coronary artery disease. Exclusion criteria were persistent ST-segment elevation and increased levels of the MB isoenzyme of creatine kinase (CK-MB) consistent with acute myocardial infarction, revascularization procedures within the preceding 6 months, malignancy, pregnancy, renal or hepatic diseases, use of anticoagulant therapy, treatment with anti-inflammatory drugs, or contraindication of the study drugs. […] Both groups received aspirin for 30 days. The dose range was 100 to 300 mg per day at the discretion of the treating physician. CK-MB levels were measured before randomization. Additional assays were performed after an episode of chest pain to confirm the diagnosis of acute MI. All patients received subcutaneous LMWH (either nadroparin 87 IU/kg BID or enoxaparin 1 mg/kg BID) or intravenous UFH given as an initial bolus of 5000 IU followed by continuous infusion at 1000 IU per hour for 7 days or until discharge from the hospital. The activated partial-thromboplastin time (APTT) was used to assess the degree of anticoagulation in patients receiving intravenous unfractionated heparin. Patients were tested every 12 hours on the first day and every 24 hours subsequently. The APTT was maintained in the range 45 to 87 seconds (normal value, 30±5 seconds).
# […] An additional secondary composite variable was determined: MI, death, and all revascularization procedures (percutaneous transluminal coronary angioplasty [PTCA] or coronary artery graft surgery [CABG]). Each component of the primary and secondary outcome variable was also recorded separately. […] Cardiac catheterization was performed at the discretion of treating physicians, but only urgent PTCA and CABG, usually after recurrent angina or MI, were considered as end points. Revascularization procedures were indicated after recurrence of chest pain refractory to medical treatment. During CCU stay and after discharge, all patients were examined for clinical events by an investigator who was unaware of treatment allocation. Patients were also instructed to report any events to study personnel immediately. The diagnostic criteria for MI were chest pain lasting 20 minutes or more with ECG changes and an at least 2-fold elevation of CK-MB. Recurrent angina was defined as recurrence of chest pain with ECG changes refractory to medical therapy (aspirin, heparin, nitroglycerin, and β-blockers).
# Relative risks (RRs) and their 95% CI were obtained. The RR reduction (RRR) is defined as 1 minus RR and expressed as percentage. The absolute risk reduction (ARR) was calculated as the difference between the risk in control patients minus the risk in treated patients and expressed as percentage. A multiple logistic regression model was used to determine the predictive value of the variables associated with events at day 90 in the previous univariate analysis. The software used were CSS/Statistics 3.1 (StatSoft Corp) and EPI INFO 6 v.6.04, 1996.
# [4] = tested on: patients with acute coronary syndromes without ST-segment elevation; assay: Safety observations in the pilot study; assay type: in vivo, human; conditions: throughout the course of the study; meloxicam 15 mg/day + aspirin + heparin
# Protocol: as §1, with “An open, randomized, prospective, single-blind pilot study of the use of meloxicam in ACS patients without ST-segment elevation was performed. Patients” for “Patients”, “The activated partial-thromboplastin time (APTT) was used to assess the degree of anticoagulation in patients receiving intravenous unfractionated heparin. Patients were tested every 12 hours on the first day and every 24 hours subsequently. The APTT was maintained in the range 45 to 87 seconds (normal value, 30±5 seconds).” left out
# [5] = after bolus intravenous dose of 15 mg meloxicam; cited from earlier work
# [6] = tested on: activated partial-thromboplastin time (APTT); assay: Activated partial thromboplastin time after unfractionated heparin in the pilot study; assay type: in vivo, human; conditions: for Activated Partial Thromboplastin Time, Mean ± SD: patients treated with unfractionated heparin; for Activated Partial Thromboplastin Time, Median: unfractionated heparin
# Protocol: as §1
# The nature of the quantitative variables distribution was assessed by the Shapiro-Wilk test. Differences between the 2 treatment groups were analyzed by the Student's t test (independent samples) or the Mann-Whitney test, according to the nature of the distribution. Differences in terms of activated partial thromboplastin time after unfractionated heparin were assessed by a 2-way ANOVA model, with repeated measures in one of the factors (Student Newman-Keuls post-hoc test). Univariate associations between qualitative variables were assessed by X^2 (Yates corrected) and Spearman rank-order correlations.
# [7] = 90-day follow-up, cumulative, n=60 per group
# [8] = 90-day follow-up, meloxicam group vs control
# [9] = 90-day follow-up, meloxicam group vs control, listed as meloxicam
# [10] = CCU period, meloxicam group vs control
# [11] = CCU period, meloxicam group vs control, listed as meloxicam
# [12] = CCU period, n=60 per group, listed as meloxicam
smiles,measurement,setting,value
CC(=O)Oc1cc(C(F)(F)F)ccc1C(=O)O [triflusal],inhibitory activity against endothelial COX-2 expression,[1],very little inhibitory activity
"CC(=O)Oc1ccccc1C(=O)O [ASA, acetylsalicylic acid]","reduction of combined incidence of cardiovascular death, MI and stroke",patients who had an ACS,25%
same,aggravation of postischemic cardiac dysfunction,[2],aggravates postischemic cardiac dysfunction
CS(=O)(=O)c1ccc(C2=C(c3ccccc3)C(=O)OC2)cc1 [rofecoxib],risk of heart attack,arthritic patients,five-fold higher risk of heart attack
"Cc1cnc(NC(=O)C2=C(O)c3ccccc3S(=O)(=O)N2C)s1 [Meloxicam, 4-hydroxy-2-methyl-N-(5-methyl-2-thiazolyl)-2H-1,2-benzothiazine-3-carboxamide-1,1-dioxide]","MI + death + revascularization, % (secondary composite)",[3]; [7],13.3%
same,"MI + death + revascularization, n (secondary composite)",[3]; [7],8 n
same,"Recurrent angina + MI + vascular death, % (primary composite)",[3]; [7],21.7%
same,"Recurrent angina + MI + vascular death, n (primary composite)",[3]; [7],13 n
same,"Recurrent angina, %",[3]; [7],20.0%
same,"Recurrent angina, %","[3]; 90-day follow-up, cumulative, n=60 per group, listed as meloxicam",20%
same,"ARR %, MI + death + revascularization",[3]; [8],20.0%
same,"ARR %, recurrent angina",[3]; [8],23.3%
same,"ARR %, revascularization",[3]; [8],18.3%
same,"RRR (95% CI), recurrent angina",[3]; [8],53.8 (17-74) %
same,"RRR (95% CI), recurrent angina + MI + vascular death",[3]; [8],55.1 (22-74) %
same,"RRR (95% CI), revascularization",[3]; [8],61.0 (14-82) %
same,"RRR (95% CI), MI + death + revascularization",[3]; [9],60.1%
same,"RRR (95% CI), recurrent angina",[3]; [9],53.8%
same,"RRR (95% CI), recurrent angina + MI + vascular death",[3]; [9],55.1%
same,"RRR (95% CI), revascularization",[3]; [9],61%
same,"Revascularization, %","[3]; 90-day follow-up, n=60 per group",11.7%
same,"Recurrent angina, %","[3]; CCU period, meloxicam + aspirin + heparin vs control aspirin + heparin, n=60 per group",15.0%
same,"ARR %, MI + death + revascularization",[3]; [10],16.7%
same,"ARR %, all revascularization",[3]; [10],15.0%
same,"ARR %, recurrent angina",[3]; [10],20.0%
same,"ARR %, recurrent angina + MI + vascular death",[3]; [10],23.3%
same,"RRR (95% CI), MI + death + revascularization",[3]; [10],62.5 (11-84) %
same,"RRR (95% CI), all revascularization",[3]; [10],60.1%
same,"RRR (95% CI), recurrent angina",[3]; [10],57.1 (14-79) %
same,"RRR (95% CI), recurrent angina + MI + vascular death",[3]; [10],60.8 (23-80) %
same,"ARR %, all revascularization",[3]; [11],15%
same,"ARR %, recurrent angina",[3]; [11],20%
same,"RRR (95% CI), MI + death + revascularization",[3]; [11],62.5%
same,"RRR (95% CI), all revascularization",[3]; [11],60.8%
same,"RRR (95% CI), recurrent angina",[3]; [11],57.1%
same,"RRR (95% CI), recurrent angina + MI + vascular death",[3]; [11],60.8%
same,"All revascularization, %","[3]; CCU period, n=60 per group",10.0%
same,"MI + death + revascularization, % (secondary composite)","[3]; CCU period, n=60 per group",10.0%
same,"MI + death + revascularization, n (secondary composite)","[3]; CCU period, n=60 per group",6 n
same,"Recurrent angina + MI + vascular death, % (primary composite)","[3]; CCU period, n=60 per group",15.0%
same,"Recurrent angina + MI + vascular death, n (primary composite)","[3]; CCU period, n=60 per group",9 n
same,"MI + death + revascularization, % (secondary composite)",[3]; [12],10%
same,"Recurrent angina + MI + vascular death, % (primary composite)",[3]; [12],15%
same,"patients reaching the additional secondary outcome variable (MI, death, revascularization)",[3]; at 30 days,11.7%
same,"patients reaching the primary outcome variable (recurrent angina, MI, or death)",[3]; at 30 days,20.0%
same,improvement of the ARR in recurrent angina,[3]; during the 30-day treatment period,3.3%
same,"decrease of the triple end points (recurrent angina, MI and vascular death or MI, death and coronary revascularization procedures)","[3]; meloxicam with aspirin and heparin, ACS without ST-segment elevation",60%
same,"patients reaching the primary outcome variable (recurrent angina, MI, or death)",[3]; within 48 hours of randomization,1.7%
same,"adverse complications (bleeding complications, side effects, intolerance)",[4],"No adverse complications; also recorded: No bleeding complications, side effects, or intolerance"
same,Cmax,[5],3000 ng/mL
same,tmax,[5],3 min
same,"Activated Partial Thromboplastin Time, Mean ± SD",[6]; Day 1,55.8 ± 26.4 s
same,"Activated Partial Thromboplastin Time, Median",[6]; Day 1,48 s
same,"Activated Partial Thromboplastin Time, Mean ± SD",[6]; Day 2,69.6 ± 19.9 s
same,"Activated Partial Thromboplastin Time, Median",[6]; Day 2,62 s
same,"Activated Partial Thromboplastin Time, Mean ± SD",[6]; Day 3,89.9 ± 24.4 s
same,"Activated Partial Thromboplastin Time, Median",[6]; Day 3,86 s
same,"Activated Partial Thromboplastin Time, Mean ± SD","[6]; Day 4, control vs meloxicam P < 0.05",89.3 ± 20.8 s
same,"Activated Partial Thromboplastin Time, Median",[6]; Day 4,84.5 s
